Results published in US5446021A, “Agricultural and horticultural compositions inducing resistance in plants against salt- and water-stress” (Nippon Zoki Pharmaceutical Co., Ltd., priority 1988, dated 1995).

How the values were obtained:
[1] = system: rice (Oryza sativa L. japonica); assay: Effects on rice seedlings under salt-stress caused by sodium chloride (NaCl); assay type: in vivo; conditions: 7 days after transplantation, mean ± S.E.
Protocol: (§1) A filter paper soaked with an aqueous solution of a test agent was laid in a germination dish. Even-sized seeds of rice (Oryza sativa L. japonica) were selected, washed with an aqueous solution containing 0.5% Tween 20 and 1.0% sodium hypochlorite, and then dried. The gemination dishes were sowed with the said rice seeds.
(§2) The seeds were treated with the aqueous solution of the test agent only during the germination period (4 days). The five seeds having equal root lengths were transplanted from germination dishes to water culture vessels with/without NaCl-solution, not containing any test drug. Lengths and weights of both shoots and roots were measured 7 days after transplantation.
(§3) These tests (30° C., 24 h daylight) were repeated 6 times, and the mean value and standard error (S.E.) were obtained.

tomato seedlings = assay: Effects on tomato seedlings under salt-stress caused by NaCl; assay type: in vivo; conditions: 0.5% NaCl for 22 days, 25~30° C., 12 h daylight, n = 12~18
Protocol: (§4) Tomato seeds were treated with the aqueous solution of the test agent during the germination period (4 days). 9 days after transplantation from germination dishes to water culture vessels, 0.5% NaCl-solution was added to the vessels. The tomato seedlings had been cultivated for 22 days in the culture medium containing NaCl.

cucumber seedlings = assay: Effects on cucumber seedlings under salt-stress caused by NaCl; assay type: in vivo; conditions: 0.5% NaCl for 25 days, 25~32° C., 12 h daylight, n = 5
Protocol: as §4, with “Cucumber” for “Tomato”, “(3” for “(4”, “11” for “9”, “cucumber” for “tomato”, “been for 25 days” for “been”, “cultivated” for “cultivated for 22 days”

rice seedlings = assay: Effects on rice seedlings under water-stress caused by mannitol; assay type: in vivo, Oryza sativa L. japonica; conditions: 25° C., 14 h daylight
Protocol: as §1
as §2, with “transplantation. […]” for “transplantation.”
Using mannitol instead of NaCl in the similar manner (I) as mentioned above, the effects of the compounds of the present invention inducing resistance against water-stress were studied.

azalea cuttings = assay: Effect on azaleas under salt-stress caused by CaCl2; assay type: in vivo; conditions: cuttings in 1×10^-6 M test solution; 20% CaCl2 sprayed; 30 days after CaCl2 treatment; result in words
Protocol: Branches about 20 cm from the top of an azalea bush were cut off. The cuttings were dipped into 50 ml of water of the test solution (compound 9; 1×10^-6 M) in a glass culture tube. The solution was replaced with new solution once a week. Six days after cutting of the branches, a 20% solution of CaCl2, which has been used as an antifreezing agent, was sprayed on the cuttings. Thirty days after the CaCl2 treatment, the rate of azalea budding was measured using the following equation: [formula]

[2] = system: rice (Oryza sativa L. japonica); assay: Rice growth in water culture with NaCl in the medium (no test agent); assay type: in vivo; conditions: for Root length / Shoot length: no test agent, 7 days after transplantation, mean ± S.E.
Protocol: as §1, §2, §3

[3] = 1.5% NaCl, compound 1 × 10^-6 M during germination
[4] = 1.0% NaCl, compound 1 × 10^-4 M during germination (4 days)
[5] = 1.0% NaCl, compound 1 × 10^-10 M during germination
[6] = 1.5% NaCl, compound 1 × 10^-4 M during germination
[7] = 1.5% NaCl, compound 1 × 10^-10 M during germination
[8] = 1.0% NaCl, compound 5 × 10^-6 M during germination
[9] = 1.0% NaCl, compound 5 × 10^-8 M during germination
[10] = 1.5% NaCl, compound 5 × 10^-8 M during germination
[11] = 1.5% NaCl, compound 5 × 10^-10 M during germination
[12] = 1.0% NaCl, compound 5 × 10^-4 M during germination
[13] = 1.5% NaCl, compound 5 × 10^-4 M during germination
[14] = 1.5% NaCl, compound 5 × 10^-6 M during germination
[15] = 2.5% mannitol, compound 1 × 10^-4 M
[16] = 2.5% mannitol, compound 1 × 10^-8 M
[17] = 5.0% mannitol, compound 1 × 10^-4 M
[18] = 5.0% mannitol, compound 1 × 10^-8 M
[19] = 1.0% NaCl, compound 1 × 10^-6 M during germination
[20] = 1.0% NaCl, compound 1 × 10^-8 M during germination
[21] = 1.5% NaCl, compound 1 × 10^-8 M during germination
[22] = 1.5% NaCl, compound 1 × 10^-10-6 M (so in the source) during germination

O=C1[C@@H]2CCCN2C(=O)[C@@H]2CCCN12 (racemic) [Compound 15, ±Cyclo(Pro-Pro)]
Root length [1, 3]: 42.7 ± 1.65 mm | Shoot length [1, 3]: 24.2 ± 0.50 mm

CC(C)C[C@@H]1NC(=O)[C@@H]2CCCN2C1=O [Compound 2, Cyclo (L-Leu-L-Pro)]
Root length [1, 4]: 38.2 ± 1.60 mm | Shoot length [1, 4]: 30.4 ± 0.60 mm | Root length [1, 5]: 37.3 ± 1.69 mm | Shoot length [1, 5]: 31.1 ± 0.60 mm | Root length [1, 6]: 38.3 ± 1.89 mm | Shoot length [1, 6]: 22.3 ± 0.53 mm | Root length [1, 7]: 39.2 ± 2.11 mm | Shoot length [1, 7]: 21.9 ± 0.53 mm

CC[C@H](C)[C@@H]1NC(=O)[C@@H]2C[C@@H](O)CN2C1=O [Compound 4, Cyclo(L-Ile-L-Hyp)]
Root length [1, 8]: 19.9 ± 0.60 mm | Shoot length [1, 8]: 30.9 ± 1.24 mm | Root length [1, 9]: 21.2 ± 0.68 mm | Shoot length [1, 9]: 27.1 ± 0.67 mm | Root length [1, 10]: 14.9 ± 0.52 mm | Shoot length [1, 10]: 16.0 ± 0.75 mm | Root length [1, 11]: 14.7 ± 0.52 mm | Shoot length [1, 11]: 16.3 ± 0.66 mm

CC(C)C[C@@H]1NC(=O)[C@@H]2C[C@@H](O)CN2C1=O [Compound 5, Cyclo (L-Leu-L-Hyp)]
Root length [1, 12]: 19.7 ± 0.69 mm | Shoot length [1, 12]: 28.7 ± 0.87 mm | Root length [1, 9]: 20.5 ± 0.87 mm | Shoot length [1, 9]: 25.4 ± 0.83 mm | Root length [1, 13]: 13.9 ± 0.61 mm | Shoot length [1, 13]: 17.1 ± 0.76 mm | Root length [1, 10]: 15.7 ± 0.58 mm | Shoot length [1, 10]: 15.6 ± 0.28 mm

O=C1[C@@H]2C[C@@H](O)CN2C(=O)[C@@H]2CCCN12 [Compound 9, Cyclo(L-Pro-L-Hyp)]
Dried stem and leaves weight (tomato seedlings; compound 1 × 10^-6 M during germination (4 days)): 111.4 ± 8.8 mg | Dried stem and leaves weight (tomato seedlings; compound 1 × 10^-8 M during germination (4 days)): 141.4 ± 14.4 mg | Root length [1, 12]: 19.5 ± 0.96 mm | Shoot length [1, 12]: 28.8 ± 0.99 mm | Root length [1, 9]: 21.8 ± 0.86 mm | Shoot length [1, 9]: 27.1 ± 0.83 mm | Root length [1, 14]: 15.9 ± 0.44 mm | Shoot length [1, 14]: 17.3 ± 0.42 mm | Root length [1, 11]: 14.0 ± 0.49 mm | Shoot length [1, 11]: 16.0 ± 0.64 mm | Dried stem weight (cucumber seedlings; compound 1 × 10^-6 M during germination (3 days)): 104.9 ± 7.37 mg | Dried stem weight (cucumber seedlings; compound 1 × 10^-8 M during germination (3 days)): 95.5 ± 3.25 mg | Root length (rice seedlings; [15]): 67.7 ± 23.84 mm | Shoot length (rice seedlings; [15]): 70.2 ± 3.73 mm | Root length (rice seedlings; [16]): 68.2 ± 10.42 mm | Shoot length (rice seedlings; [16]): 63.4 ± 2.18 mm | Root length (rice seedlings; [17]): 39.6 ± 1.80 mm | Shoot length (rice seedlings; [17]): 30.0 ± 2.29 mm | Root length (rice seedlings; [18]): 46.7 ± 9.51 mm | Shoot length (rice seedlings; [18]): 27.1 ± 1.55 mm | Protection of azaleas against salt-stress (rate of azalea budding, FIG. 1) (azalea cuttings): protecting azaleas against salt-stress

O=C1[C@@H]2C[C@@H](O)CN2C(=O)[C@@H]2C[C@@H](O)CN12 [Compound 13, Cyclo(L-Hyp-L-Hyp)]
Root length [1, 19]: 38.5 ± 1.66 mm | Shoot length [1, 19]: 29.4 ± 0.61 mm | Root length [1, 20]: 38.1 ± 2.03 mm | Shoot length [1, 20]: 30.5 ± 0.59 mm | Root length [1, 6]: 35.6 ± 2.28 mm | Shoot length [1, 6]: 21.4 ± 0.69 mm | Root length [1, 21]: 37.9 ± 1.58 mm | Shoot length [1, 21]: 21.9 ± 0.40 mm

O=C1[C@@H]2C[C@H](O)CN2C(=O)[C@@H]2C[C@H](O)CN12 [Compound 14, Cyclo(L-aHyp-L-aHyp)]
Root length [1, 19]: 43.2 ± 1.69 mm | Shoot length [1, 19]: 31.8 ± 0.57 mm | Root length [1, 5]: 38.2 ± 1.57 mm | Shoot length [1, 5]: 30.4 ± 0.60 mm | Root length [1, 6]: 35.0 ± 1.77 mm | Shoot length [1, 6]: 21.8 ± 0.58 mm | Root length [1, 22]: 35.3 ± 1.93 mm | Shoot length [1, 22]: 22.6 ± 0.83 mm

[Cl-].[Na+] [NaCl, sodium chloride]
Root length ([2]; 0.1% NaCl in water culture): 53.3 ± 2.61 mm | Shoot length ([2]; 0.1% NaCl in water culture): 78.0 ± 1.74 mm | Root length ([2]; 0.2% NaCl in water culture): 39.7 ± 2.02 mm | Shoot length ([2]; 0.2% NaCl in water culture): 77.6 ± 1.63 mm | Root length ([2]; 0.3% NaCl in water culture): 37.8 ± 1.48 mm | Shoot length ([2]; 0.3% NaCl in water culture): 79.2 ± 1.48 mm | Root length ([2]; 0.5% NaCl in water culture): 33.8 ± 1.76 mm | Shoot length ([2]; 0.5% NaCl in water culture): 45.3 ± 1.82 mm | Root length ([2]; 0.75% NaCl in water culture): 32.9 ± 1.07 mm | Shoot length ([2]; 0.75% NaCl in water culture): 34.7 ± 0.66 mm | Root length ([2]; 1.0% NaCl in water culture): 34.0 ± 1.75 mm | Shoot length ([2]; 1.0% NaCl in water culture): 28.2 ± 0.47 mm | Rice growth with NaCl in the medium ([2]; Table 1, result in words): apparently inhibited
